Test [1] deals with T1, mouse full-length Src protein (Mus musculus, UniProt P05480).
T1 construct: mouse full-length Src protein
Nature of the test: IC50 determination for inhibitors of Src kinase (IMAP fluorescence polarization). The note with it: 24 uM ATP, 37° C., 60 minutes; read-out: IC50 Src kinase inhibition. The format is biochemical. The protocol:
Src assay was done using mouse full-length Src protein, fluorescein labeled peptide substrate (with a sequence of KVEKIGEGTYGVVYK) and quantified by Molecular Devices' IMAP fluorescence polarization technology. Compounds were tested in serially diluted concentrations in 384 well plates. Kinase reaction was performed in KAB Buffer (10 mM HEPES, pH 7, 50 mM NaCl, 5 mM MgCl2, 1 mM DTT, 0.1 mM NaVO4, 0.02% BSA), in the presence of 24 uM ATP, incubated at 37° C. for 60 minutes. Reaction was stopped by IMAP bead mix (at 1:400 dilution). After incubation at room temperature for 2 hours, the reaction product was analyzed on LJL Acquest (excitation 485 nm and Emission 530 nm).
(§1) FP reading (in mP) was used to calculate reaction rate. The assay was semi-automated by Tomtec Quadra workstation.

Test [2] concerns the target human recombinant PDGFR beta (Homo sapiens, UniProt P09619). Nature of the test: IC50 determination for inhibitors of PDGFR kinase (IMAP fluorescence polarization). In kind it is biochemical. The conditions noted are these: 48 uM ATP, room temperature, 60 minutes, read-out: IC50 PDGFR kinase inhibition. Here is the method: PDGFR assay was carried out with human recombinant PDGFR beta, fluorescein labeled peptide substrate (with a peptide sequence of ALTSNQEYLDLSMPL) and test compounds (in serial dilution) using 384-well plates. Kinase reaction was performed in MOPS buffer (20 mM MOPS pH 7.1, 5 mM Sodium Acetate, 6.25 mM MgCl2, 0.5 mM EDTA, 1 mM DTT, 0.04 mM NaVO4, 0.02% BSA), in the presence of 48 uM ATP, incubated at room temperature for 60 minutes. Reaction was stopped by IMAP Bead Binding System (Molecular Devices). After incubation at room temperature for 2 hours, the reaction product was analyzed on LJL Acquest.
as §1

In test [3] the target is T2, fusion protein corresponding to mouse Abl (27-end) (Mus musculus, UniProt P00520).
T2 construct: fusion protein corresponding to mouse Abl (27-end)
T2 sequence (P00520 27-1123 limits assumed): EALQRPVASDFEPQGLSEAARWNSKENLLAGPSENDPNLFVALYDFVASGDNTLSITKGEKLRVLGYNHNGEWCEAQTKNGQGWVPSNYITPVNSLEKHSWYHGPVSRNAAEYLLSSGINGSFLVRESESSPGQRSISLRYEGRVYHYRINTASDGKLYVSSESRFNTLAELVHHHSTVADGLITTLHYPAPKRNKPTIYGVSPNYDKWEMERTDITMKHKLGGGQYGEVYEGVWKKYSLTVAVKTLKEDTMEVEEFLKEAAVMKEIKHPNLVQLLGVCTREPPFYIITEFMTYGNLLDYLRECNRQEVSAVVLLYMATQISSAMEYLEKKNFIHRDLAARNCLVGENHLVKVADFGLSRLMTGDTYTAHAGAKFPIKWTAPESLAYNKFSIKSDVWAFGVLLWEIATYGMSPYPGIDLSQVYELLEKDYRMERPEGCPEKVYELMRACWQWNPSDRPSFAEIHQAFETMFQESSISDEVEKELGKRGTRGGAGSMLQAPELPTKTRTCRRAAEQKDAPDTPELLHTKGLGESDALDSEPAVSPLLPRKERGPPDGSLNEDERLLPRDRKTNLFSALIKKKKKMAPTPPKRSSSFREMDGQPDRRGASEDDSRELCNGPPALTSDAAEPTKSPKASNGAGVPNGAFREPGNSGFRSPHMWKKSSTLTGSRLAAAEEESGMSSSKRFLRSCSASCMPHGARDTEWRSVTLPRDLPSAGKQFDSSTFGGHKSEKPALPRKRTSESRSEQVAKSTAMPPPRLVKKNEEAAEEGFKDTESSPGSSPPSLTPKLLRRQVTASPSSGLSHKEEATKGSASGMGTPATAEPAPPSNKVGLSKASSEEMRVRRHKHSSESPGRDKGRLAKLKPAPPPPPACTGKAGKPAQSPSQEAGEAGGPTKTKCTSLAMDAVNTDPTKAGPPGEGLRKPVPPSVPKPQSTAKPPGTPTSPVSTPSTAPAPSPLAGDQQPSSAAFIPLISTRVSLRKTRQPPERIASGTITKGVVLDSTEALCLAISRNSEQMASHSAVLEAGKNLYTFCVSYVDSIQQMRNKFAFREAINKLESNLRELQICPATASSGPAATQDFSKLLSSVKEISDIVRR
In words: IC50 determination for inhibitors of Abl kinase (IMAP fluorescence polarization). In kind it is biochemical. The conditions noted are these: 22.8 uM ATP, 37° C., 60 minutes; read-out: IC50 Abl kinase inhibition. Here is the method:
Abl assay was done using fusion protein corresponding to mouse Abl (27-end), fluorescein labeled peptide substrate (with a sequence of EAIYAAPFAKKK) and quantified by Molecular Devices' IMAP fluorescence polarization technology. Compounds were tested in serially diluted concentrations in 384 well plates. Kinase reaction was performed in KAB Buffer (10 mM HEPES, pH 7, 50 mM NaCl, 5 mM MgCl2, 1 mM DTT, 0.1 mM NaVO4, 0.02% BSA), in the presence of 22.8 uM ATP, incubated at 37° C. for 60 minutes. Reaction was stopped by IMAP bead mix (at 1:400 diluted). After incubation at room temperature for 3 hours, the reaction product was analyzed on LJL Acquest (excitation 485 nm and Emission 530 nm).
FP reading (in mP) was used to calculate reaction rate. The assay was semi automated by Tomtec Quadra workstation.
(In fluorescence polarisation assays a small probe gives low polarisation when free and higher when bound to something large.)

Another test deals with HCT 116 cells. Nature of the test: CellTiter-Glo assay in HCT 116 cells (antiproliferative activity). In kind it is cell-based. The conditions noted are these: Homo sapiens, HCT-116, 120 h, cell viability after 5 days. The protocol: The CellTiter-Glo™ Luminescent Cell Viability Assay (Promega) is a homogeneous method of determining the number of viable cells in culture based on quantitation of the ATP present, which signals the presence of metabolically active cells.
HCT 116 cells (human colon carcinoma, ATCC-No. CCl-247) were cultivated in RPMI 1640 medium with GlutaMAX™ 1 (Invitrogen, Cat-No. 61870-010), 5% Fetal Calf Serum (FCS, Sigma Cat-No. F4135 (FBS)); 100 Units/ml penicillin/100 μg/ml streptomycin (=Pen/Strep from Invitrogen Cat. No. 15140). For the assay the cells were seeded in 384 well plates, 1000 cells per well, in the same medium. The next day the test compounds were added in various concentrations ranging from 30 μM to 0.0015 μM (10 concentrations, 1:3 diluted). After 5 days the CellTiter-Glo™ assay was done according to the instructions of the manufacturer (CellTiter-Glo™ Luminescent Cell Viability Assay, from Promega). In brief: the cell-plate was equilibrated to room temperature for approximately 30 minutes and than the CellTiter-Glo™ reagent was added. The contents were carefully mixed for 15 minutes to induce cell lysis. After 45 minutes the luminescent signal was measured in Victor 2, (scanning multiwell spectrophotometer, Wallac).
• Medium: RPMI 1640 with GlutaMAX™ 1 (Invitrogen, Cat-No. 61870), 5% FCS (Sigma Cat.-No. F4135), Pen/Strep (Invitrogen, Cat No. 15140). • HCT116 (ATCC-No. CCl-247): 1000 cells in 60 μl per well of 384 well plate (Greiner 781098, μClear-plate white) • After seeding incubate plates 24 h at 37° C., 5% CO2 2nd. Day: Induction (Treatment with Compounds, 10 Concentrations):
In order to achieve a final concentration of 30 μM as highest concentration 3.5 μl of 10 mM compound stock solution were added directly to 163 μl media. Then step e) of the dilution procedure described below, was followed.
(ATP-based viability assays read luminescence as a measure of living cells.)

SMILES strings stand for the structures. Structures can show the parent of a compound that is named as a salt.

Chain of human recombinant PDGFR beta (P09619 33-1106): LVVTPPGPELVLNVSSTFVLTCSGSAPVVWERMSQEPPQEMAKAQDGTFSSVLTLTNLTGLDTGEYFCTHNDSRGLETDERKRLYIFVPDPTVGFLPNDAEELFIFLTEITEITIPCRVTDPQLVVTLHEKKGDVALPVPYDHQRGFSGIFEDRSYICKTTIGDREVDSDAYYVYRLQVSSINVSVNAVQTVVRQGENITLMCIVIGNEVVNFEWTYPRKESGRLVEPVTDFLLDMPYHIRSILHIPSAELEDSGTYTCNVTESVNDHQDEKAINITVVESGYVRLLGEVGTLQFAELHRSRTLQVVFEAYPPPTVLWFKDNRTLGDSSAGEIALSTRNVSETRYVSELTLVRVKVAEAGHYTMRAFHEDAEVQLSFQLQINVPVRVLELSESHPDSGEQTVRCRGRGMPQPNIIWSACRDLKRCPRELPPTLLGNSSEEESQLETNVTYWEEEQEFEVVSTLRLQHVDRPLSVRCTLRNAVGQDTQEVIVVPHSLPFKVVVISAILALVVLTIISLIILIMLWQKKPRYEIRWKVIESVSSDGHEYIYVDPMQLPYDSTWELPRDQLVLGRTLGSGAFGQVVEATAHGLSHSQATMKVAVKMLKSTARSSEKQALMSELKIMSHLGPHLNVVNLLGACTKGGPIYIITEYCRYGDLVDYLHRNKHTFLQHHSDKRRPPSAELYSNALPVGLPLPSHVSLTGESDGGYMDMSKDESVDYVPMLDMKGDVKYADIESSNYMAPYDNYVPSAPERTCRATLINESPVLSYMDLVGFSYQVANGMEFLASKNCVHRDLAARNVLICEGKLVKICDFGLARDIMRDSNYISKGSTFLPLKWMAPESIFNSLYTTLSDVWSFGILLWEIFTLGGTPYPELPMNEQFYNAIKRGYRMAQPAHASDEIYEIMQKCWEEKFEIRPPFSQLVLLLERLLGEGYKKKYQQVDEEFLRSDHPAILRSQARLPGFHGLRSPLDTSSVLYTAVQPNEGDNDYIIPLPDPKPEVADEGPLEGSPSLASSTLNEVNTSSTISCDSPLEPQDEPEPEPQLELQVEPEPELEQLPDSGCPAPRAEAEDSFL
T1 sequence (P05480 whole entry): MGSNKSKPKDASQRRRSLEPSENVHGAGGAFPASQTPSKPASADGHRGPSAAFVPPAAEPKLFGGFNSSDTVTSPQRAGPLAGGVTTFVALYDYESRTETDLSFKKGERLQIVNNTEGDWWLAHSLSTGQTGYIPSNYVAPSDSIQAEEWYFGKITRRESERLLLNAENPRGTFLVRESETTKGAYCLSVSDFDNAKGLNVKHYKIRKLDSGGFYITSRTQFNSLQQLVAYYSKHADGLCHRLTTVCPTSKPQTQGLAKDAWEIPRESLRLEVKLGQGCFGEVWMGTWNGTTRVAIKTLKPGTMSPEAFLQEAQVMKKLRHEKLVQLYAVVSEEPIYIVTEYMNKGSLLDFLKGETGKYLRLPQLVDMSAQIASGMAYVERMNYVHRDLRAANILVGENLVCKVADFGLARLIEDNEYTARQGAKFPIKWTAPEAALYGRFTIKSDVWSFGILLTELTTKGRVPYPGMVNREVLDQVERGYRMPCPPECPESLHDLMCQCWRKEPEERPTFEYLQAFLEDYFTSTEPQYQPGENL

`CN(C)CCOc1cccc(-c2ccc(C(=O)Nc3ccc(Cl)c(C(=O)Nc4cnc5[nH]ccc5c4)c3)cc2)c1` [Example 1-1]: the IC50 in test [1] was 5 to 1000 nM; in test [2], 10 to 1000 nM; in test [3], 5 to 1000 nM; with HCT 116 cells it was 1810 nM. As for `CC(Sc1cccc(-c2ccc(C(=O)Nc3ccc(Cl)c(C(=O)Nc4cnc5[nH]ccc5c4)c3)cc2)c1)C(N)=O` (stereo not shown) [Example 1-2, 3′-(1-Carbamoyl-ethylsulfanyl)-biphenyl 4 carboxylic acid [4-chloro 3 (1H-pyrrolo[2,3-b]pyridin-5-ylcarbamoyl)-phenyl]-amide], the IC50 with HCT 116 cells was in the range of 100 to 10000 nM. Consider `Cc1n[nH]c(C)c1-c1ccccc1C(=O)Nc1ccc(Cl)c(C(=O)Nc2cnc3[nH]ccc3c2)c1` [Example 3-1], for which, in test [1], the IC50 lay in the range of 5 to 1000 nM. On to `O=C(Nc1ccc(Cl)c(C(=O)Nc2cnc3[nH]ccc3c2)c1)c1cc(-c2ccccc2Cl)no1` [Example 4-1, 3-(2-Chloro-phenyl)-isoxazole-5-carboxylic acid[4-chloro-3-(1H-pyrrolo[2,3-b]pyridin-5-ylcarbamoyl)-phenyl]-amide], for which the figures for the IC50 (in test [3]; in the test with HCT 116 cells) were 5 to 1000 nM and 100 to 10000 nM, respectively.

For the compound `Cc1c(C(=O)Nc2ccc(Cl)c(C(=O)Nc3cnc4[nH]ccc4c3)c2)cnn1-c1ccccc1` [Example 4-2, 5-Methyl-1-phenyl-1H-pyrazole-4-carboxylic acid [4-chloro-3-(1H-pyrrolo[2,3-b]pyridin-5-ylcarbamoyl)-phenyl]-amide], the IC50 in test [1] and in test [3] was 5 to 1000 nM in each case. For the compound `O=C(Nc1ccc(Cl)c(C(=O)Nc2cnc3[nH]ccc3c2)c1)c1cccc(N2CCOCC2)c1` [Example 4-3, 2-Chloro-5-(3-morpholin-4-yl-benzoylamino)-N-(1H-pyrrolo[2,3-b]pyridin-5-yl)-benzamide], the IC50 in test [1] is 5 to 1000 nM; in test [3], 5 to 1000 nM; with HCT 116 cells, 100 to 10000 nM. Consider `COc1ccccc1/C=C/C(=O)Nc1ccc(Cl)c(C(=O)Nc2cnc3[nH]ccc3c2)c1` [Example 4-4, 2-Chloro-5-[(E)-3-(2-methoxy-phenyl)-acryloylamino]-N-(1H-pyrrolo[2,3-b]pyridin-5-yl)-benzamide], for which the IC50 with HCT 116 cells lay within 100 to 10000 nM. For the compound `CC(C)(C)Oc1ccc(C(=O)Nc2ccc(Cl)c(C(=O)Nc3cnc4[nH]ccc4c3)c2)cc1` [Example 4-5, 5-(4-tert-Butoxy-benzoylamino)-2-chloro-N-(1H-pyrrolo[2,3-b]pyridin-5-yl)-benzamide], the IC50 is 5 to 1000 nM in test [1], 5 to 1000 nM in test [3] and 380 nM with HCT 116 cells. For `CC(C)(C#N)c1cccc(C(=O)Nc2ccc(Cl)c(C(=O)Nc3cnc4[nH]ccc4c3)c2)c1` [Example 4-6, 2-Chloro-5-[3-(cyano-dimethyl-methyl)-benzoylamino]-N-(1H-pyrrolo[2,3-b]pyridin-5-yl)-benzamide], the figures for the IC50 (in test [3]; in the test with HCT 116 cells) were 5 to 1000 nM and 100 to 10000 nM, respectively. In the test with HCT 116 cells, `COc1ccc([C@H]2C[C@@H]2C(=O)Nc2ccc(Cl)c(C(=O)Nc3cnc4[nH]ccc4c3)c2)cc1` [Example 4-7, 2-Chloro-5-{[(1S,2S)-2-(4-methoxy-phenyl)-cyclopropanecarbonyl]-amino}-N-(1H-pyrrolo[2,3-b]pyridin-5-yl)-benzamide] came in with an IC50 of 100 to 10000 nM. Regarding `Cc1ccc(NC(=O)c2ccccc2)cc1C(=O)Nc1cnc2[nH]cnc2c1` [Example 6-1, 5-benzoylamino-N-(3H-imidazo[4,5-b]pyridin-6-yl)-2-methyl-benzamide], the results for the IC50 in test [1] and in test [3] were 10 nM and 5 to 1000 nM, respectively. Turning to `Cc1ccc(NC(=O)c2cccc(-c3ccccc3)c2)cc1C(=O)Nc1cnc2[nH]cnc2c1` [Example 6-2, Biphenyl-3-carboxylic acid [3-(3H-imidazo[4,5-b]pyridin-6-ylcarbamoyl)-4-methyl-phenyl]-amide], the IC50 in test [1] was 5 to 1000 nM; in test [2], 1120 nM. Consider `Cc1ccc(NC(=O)c2ccc(-c3ccccc3)cc2)cc1C(=O)Nc1cnc2[nH]cnc2c1` [Example 6-3, Biphenyl-4-carboxylic acid [3-(3H-imidazo[4,5-b]pyridin-6-ylcarbamoyl)-4-methyl-phenyl]-amide], for which, in test [1], the IC50 is 5 to 1000 nM. Turning to `O=C(Nc1ccc(N2CCOCC2)cc1)c1ccc(Cl)c(C(=O)Nc2cnc3[nH]ccc3c2)c1` [Example 7-1, 4-Chloro-N^1-(4-morpholin-4-yl-phenyl)-N^3-(1H-pyrrolo[2,3-b]pyridin-5-yl)-isophthalamide], the IC50 in test [1] was 5 to 1000 nM; in test [2], 10 to 1000 nM; in test [3], 831 nM. Compound `O=C(Nc1ccc(Oc2ccccc2)nc1)c1ccc(Cl)c(C(=O)Nc2cnc3[nH]ccc3c2)c1` [Example 8-1, 4-Chloro-N^1-(6-phenoxy-pyridin-3-yl)-N^3-(1H-pyrrolo[2,3-b]pyridin-5-yl)-isophthalamide hydrochloride] yielded an IC50 in the test with HCT 116 cells of 100 to 10000 nM. Still for that read-out and setting: as for `O=C(Nc1nc2c(c(C(F)(F)F)n1)CCCC2)c1ccc(Cl)c(C(=O)Nc2cnc3[nH]ccc3c2)c1` [Example 8-2, 4-Chloro-N^3-(1H-pyrrolo[2,3-b]pyridin-5-yl)-N^1-(4-trifluoromethyl-5,6,7,8-tetrahydro-quinazolin-2-yl)-isophthalamide hydrochloride], the figure is 100 to 10000 nM. Same read-out and setting: then `O=C(N[C@H]1C[C@@H]1c1ccccc1)c1ccc(Cl)c(C(=O)Nc2cnc3[nH]ccc3c2)c1` [Example 8-3, 4-Chloro-N^1-((1S,2R)-2-phenyl-cyclopropyl)-N^3-(1H-pyrrolo[2,3-b]pyridin-5-yl)-isophthalamide hydrochloride], with 100 to 10000 nM. The same measure, in the same setting: then `O=C(Nc1cccc(-n2cccn2)c1)c1ccc(Cl)c(C(=O)Nc2cnc3[nH]ccc3c2)c1` [Example 8-5, 4-Chloro-N^1-(3-pyrazol-1-yl-phenyl)-N^3-(1H-pyrrolo[2,3-b]pyridin-5-yl)-isophthalamide hydrochloride], with 100 to 10000 nM. For the compound `CC(C)(C#N)c1cccc(NC(=O)c2ccc(Cl)c(C(=O)Nc3cnc4[nH]ccc4c3)c2)c1` [Example 8-7, 4-Chloro-N^1-[3-(cyano-dimethyl-methyl)-phenyl]-N^3-(1H-pyrrolo[2,3-b]pyridin-5-yl)-isophthalamide hydrochloride], the half-inhibitory concentration (IC50) with HCT 116 cells was in the range of 100 to 10000 nM.

Turning to `CN1C(=O)CSc2cc(NC(=O)c3ccc(Cl)c(C(=O)Nc4cnc5[nH]ccc5c4)c3)ccc21` [Example 8-8, 4-Chloro-N^1-(4-methyl-3-oxo-3,4-dihydro-2H-benzo[1,4]thiazin-7-yl)-N^3-(1H-pyrrolo[2,3-b]pyridin-5-yl)-isophthalamide hydrochloride], the IC50 in the test with HCT 116 cells is 100 to 10000 nM.

A word on the IC50: it is the point on the concentration scale where inhibition reaches its midpoint.

These data come from patent US8067599B2 (Hoffman-La Roche Inc., priority 2006, dated 2011).
